Source: patent publication US20250084091A1, “INHIBITORS OF SARS-COV-2” (The Texas A&M University System, priority 2021, published 2025)
Like-named read-outs stand apart in the source and are kept apart here.

Columns and labels:
[1] = Uninfected host cell cytotoxicity counter screen; assay type: cell-based; conditions: human
Description: Uninfected host cell cytotoxicity counter screen: HeLa-ACE2 cells were maintained as described for the infection assay and seeded in the assay-ready plates at 400 cells/well. Plates were incubated for 24 hours at 37° C. 5% CO2. To assess cell viability, the Image-iT DEAD green reagent was used according to manufacturer instructions. Cells were fixed with 4% paraformaldehyde, and counterstained with DAPI. Fixed cells are imaged as described above.
Viral replication data analysis: Data from the primary screen and the host cell cytotoxicity screen are normalized to neutral (DMSO) […] inhibitor controls (2.5 μM Remdesivir for antiviral effect and 10 μM puromycin for infected host cell toxicity). For the uninfected host cell cytotoxicity counter-screen 40 μM puromycin is used as the positive control. Concentration response experiments will be tested in triplicate.

HeLa-ACE2 cells = experiment: cells; assay type: cell-based; conditions: Table 2, total cell count in infected plates
[2] = molecular target: SARS-CoV-2 main protease (Mpro) (Severe acute respiratory syndrome coronavirus 2, UniProt P0DTD1); experiment: biochemical
[3] = test system: SARS-CoV-2 (strain USA-WA1/2020); experiment: microbe, parasite or virus in culture; assay type: cell-based
[4] = Severe acute respiratory syndrome coronavirus 2, Table 2, SARS-CoV-2 infected HeLa-ACE2 cells, read-out: CoV-2 HeLa EC50
[5] = Table 2, uninfected cells, 24 hours, read-out: Uninfected HeLa-ACE2 CC50
[6] = Severe acute respiratory syndrome coronavirus 2, HeLa-ACE2, read-out: CoV-2 HeLa EC50, Table 2, SARS-CoV-2 infected HeLa-ACE2 cells
[7] = Table 3, select example compounds against mpro, read-out: Enzyme IC50
[8] = Severe acute respiratory syndrome coronavirus 2, HeLa, Table 3, read-out: CoV-2 HeLa EC50

Compound | CC50 at 24 h [1] [nM] | EC50 (HeLa-ACE2 cells) [nM] | IC50 ([2]; Table 2, read-out: Enzyme IC50) [nM] | EC50 [3, 4] [nM] | CC50 at 24 h [1, 5] [nM] | IC50 ([2]; Enzyme IC50, Table 2) [nM] | EC50 [3, 6] [nM] | IC50 [2, 7] [nM] | EC50 [3, 8] [nM]
O=C(c1cncc(C(F)(F)F)c1)N1CCN(C(c2ccccc2)c2cccnc2)CC1 (centres unmarked) [MKP-1195, 1-[phenyl(pyridin-3-yl)methyl]-4-[5-(trifluoromethyl)pyridine-3-carbonyl]piperazine] | > 39800 | > 9610 | 2680 | 8770 |  |  |  |  | 
O=C1CC(C(=O)N2CCN(C3c4ccccc4CCc4ccccc43)CC2)c2ccccc2N1 (centres unmarked) [ZS-324, 4-[4-(2-tricyclo[9.4.0.03,8]pentadeca-1(11),3(8),4,6,12,14-hexaenyl)piperazine-1-carbonyl]-3,4-dihydro-1H-quinolin-2-one] | 21100 | > 9610 | 540 | 2790 |  |  |  |  | 
Cc1cncc(C(=O)N2CCN(C(c3ccccc3)c3ccccc3S(C)(=O)=O)CC2)c1 (centres unmarked) [NZ-807, (5-methyl-3-pyridyl)-[4-[(2-methylsulfonylphenyl)-phenyl-methyl]piperazin-1-yl]methanone] | > 39800 | > 9610 | 610 | 1990 |  |  |  |  | 
O=C(c1cnccc1Cl)N1CCN(C(c2ccccc2)c2ccccc2)CC1 [AA-605, (4-benzhydrylpiperazin-1-yl)(4-chloropyridin-3-yl)methanone] | > 39800 | 7160 | 1300 | 3030 |  |  |  |  | 
Cc1c(Br)cncc1C(=O)N1CCN(C2c3ccccc3CCc3ccccc32)CC1 [ZS-346, (5-bromo-4-methyl-3-pyridyl)-[4-(2-tricyclo[9.4.0.03,8]pentadeca-1(11),3(8),4,6,12,14-hexaenyl)piperazin-1-yl]methanone] | > 39800 | 2040 | 270 | 1070 |  |  |  |  | 
O=C(c1cncc(C(F)(F)F)c1)N1CCN(C(c2ccccc2)c2ccccc2)CC1 [AA-590, (4-benzhydrylpiperazin-1-yl)(5-(trifluoromethyl)pyridin-3-yl)methanone] | > 39800 | > 9610 | 990 | 4900 |  |  |  |  | 
O=C(c1cccnc1)N1CCC(=C(c2ccccc2)c2ccccc2)CC1 [NZ-772, 3-[4-(diphenylmethylidene)piperidine-1-carbonyl]pyridine] | > 39800 | > 9610 | 320 | 1010 |  |  |  |  | 
O=C(c1cncc(Br)c1)N1CCN(C(c2ccccc2)c2ccsc2)CC1 (centres unmarked) [MKP-1220, 1-(5-bromopyridine-3-carbonyl)-4-[phenyl(thiophen-3-yl)methyl]piperazine] | > 39800 | 2640 | 250 | 884 |  |  |  |  | 
O=C(c1cccnc1)N1C2CCC1CN(C(c1ccccc1)c1ccccc1)C2 [AA-597, (3-benzhydryl-3,8-diazabicyclo[3.2.1]octan-8-yl)(pyridin-3-yl)methanone] |  | > 9610 |  |  | > 39800 | 3900 | > 9610 |  | 
O=C(c1cncc(Cl)c1)N1CCN(C(c2ccccc2)c2ccccc2)CC1 [AA-591, (4-benzhydrylpiperazin-1-yl)(5-chloropyridin-3-yl)methanone] | > 39800 | > 9610 | 300 | 890 |  |  |  |  | 
O=C(c1cncc2cc[nH]c12)N1CCC(=C2c3ccccc3CS(=O)(=O)c3ccccc32)CC1 [NZ-804, [4-(5,5-dioxo-6H-benzo[c][1]benzothiepin-11-ylidene)-1-piperidyl]-(1H-pyrrolo[3,2-c]pyridin-7-yl)methanone] | > 39800 | 162 | 30 | 15 |  |  |  | 9 | 15
O=C(c1cccnc1)N1CCN(C(c2ccccc2)c2ccsc2)CC1 (centres unmarked) [MKP-1215, 1-[phenyl(thiophen-3-yl)methyl]-4-(pyridine-3-carbonyl)piperazine] | > 39800 | > 9610 | 4500 | 2810 |  |  |  |  | 
CC(=O)Nc1cccc(C(c2ccccc2)N2C3CCC2CN(C(=O)c2cncc(C)c2)C3)c1 (centres unmarked) [AA-627, N-(3-((3-(5-methylnicotinoyl)-3,8-diazabicyclo[3.2.1]octan-8-yl)(phenyl)methyl)phenyl)acetamide] |  | > 9610 |  |  | > 39800 | 48 | 3000 |  | 
CC(=O)Nc1cncc(C(=O)N2CCN(C(c3ccccc3)c3ccccc3)CC2)c1 [AA-624, N-(5-(4-benzhydrylpiperazine-1-carbonyl)pyridin-3-yl)acetamide] | > 39800 | > 9610 | 890 | 2620 |  |  |  |  | 
O=C(c1cncc2cc[nH]c12)N1CC2CCC(C1)N2C(c1ccccc1)c1ccccc1 [AA-643, (8-benzhydryl-3,8-diazabicyclo[3.2.1]octan-3-yl)(1H-pyrrolo[3,2-c]pyridin-7-yl)methanone] |  | 1050 |  |  | 21500 | 58 | 348 |  | 
O=C(c1cncc(Cl)c1)N1CCN(C(c2ccccc2)c2cccnc2)CC1 (centres unmarked) [MKP-1193, 1-(5-chloropyridine-3-carbonyl)-4-[phenyl(pyridin-3-yl)methyl]piperazine] | > 39800 | > 9610 | 450 | 810 |  |  |  |  | 
Cc1cncc(C(=O)N2CCC(N(c3ccccc3)c3ccccc3)CC2)c1 [AA-613, (4-(diphenylamino)piperidin-1-yl)(5-methylpyridin-3-yl)methanone] | > 39800 | > 9610 | 820 |  |  |  | > 9610 |  | 
O=C(c1cncc2[nH]ccc12)N1CCC(=C2c3ccccc3CS(=O)(=O)c3ccccc32)CC1 [NZ-805, [4-(5,5-dioxo-6H-benzo[c][1]benzothiepin-11-ylidene)-1-piperidyl]-(1H-pyrrolo[2,3-c]pyridin-4-yl)methanone] | > 39800 | 64 | 48 | 58 |  |  |  | 14 | 58
Cc1cc(C(=O)N2CCC(C(O)(c3ccccc3)c3ccccc3)CC2)c[n+]([O-])c1 [NZ-792, [4-[hydroxy(diphenyl)methyl]-1-piperidyl]-(5-methyl-1-oxo-3-pyridyl)methanone] | > 39800 | > 9610 | > 10000 |  |  |  | > 9610 |  | 
Cc1cncc(C(=O)N2CCN(C(c3ccccc3)c3ccc(F)cc3)CC2)c1 (centres unmarked) [AA-620, (4-((4-fluorophenyl)(phenyl)methyl)piperazin-1-yl)(5-methylpyridin-3-yl)methanone] | > 39800 | 841 | 260 | 717 |  |  |  |  | 
O=C(c1cncc(F)c1)N1CCC(C(O)(c2ccccc2)c2ccccc2)CC1 [NZ-778, [1-(5-fluoropyridine-3-carbonyl)piperidin-4-yl]diphenylmethanol] | > 39800 | > 9610 | 1700 | 3630 |  |  |  |  | 
Cc1cnc(F)c(C(=O)N2CC3CCC(C2)N3C(c2ccccc2)c2ccccc2)c1 [AA-638, (8-benzhydryl-3,8-diazabicyclo[3.2.1]octan-3-yl)(2-fluoro-5-methylpyridin-3-yl)methanone] |  | 711 |  |  | > 39800 | 220 | 893 |  | 
O=C(c1cncs1)N1CCN(C(c2ccccc2)c2ccccc2)CC1 [MKP-1318, 1-(diphenylmethyl)-4-(1,3-thiazole-5-carbonyl)piperazine] | > 39800 | > 9610 |  |  |  |  | > 9610 |  | 
